Data: patent US20250109127A1, “METHODS OF USE OF PHENOXYPROPYLAMINE COMPOUNDS TO TREAT DEPRESSION” (Minerva Neurosciences, Inc., priority 2013, published 2025)
Counter-ions that a name gives are not always drawn.

Tested on: DOPAC release in the rat prefrontal cortex
Experiment: Microdialysis: DOPAC release in prefrontal cortex after I.P. administration
Format: in vivo
Conditions: for DOPAC release, MEAN: 3 mg/kg IP; for DOPAC release, MEAN / DOPAC (% of respective basal) MEAN: n = 8
Description: The aim of the study was to evaluate, using microdialysis, the effects of an intraperitoneal (I.P.) administration in rats of three different doses of SON-117 on dopamine and its metabolites, serotonin and its metabolite (5-HIAA), and norepinephrine levels in prefrontal cortex.
Thirty-two adult male Wistar rats were used for the whole study (4 groups of eight animals planned for the study, Table 1).
Surgery was performed on rats weighing about 300 g at the beginning of the experiments. Rats were anaesthetized with Ketamine (50 mg/kg) & Xylazine (15 mg/kg) by intramuscular administration. The animals were placed in a stereotaxic apparatus in the flat-skull position at a constant setting of −3.3 mm between ear bars and the incisor bar. The animals were treated with a local anesthesic (xylocaine 1%, Astra Zeneca) and an analgesic (Temgesic, from Schering Plough, 0.05 mg/kg, s.c.). A rostrocaudal midline incision was made with a lancet to expose the dorsal skull surface. The “stereotaxic zero” was defined by the Bregma in accordance with Paxinos and Watson's atlas (1986). A hole was drilled in the skull with a drill and the meninges were pierced with a sterile needle to implant a CMA12 guide cannula which later received the dialysis probe.
Coordinates used for implanting guide cannula in prefrontal cortex from Bregma were anteroposterior 3.7 mm, mediolateral 0.8 mm, and dorsoventral −2 mm (top of the probe was at −5 mm). The guide cannula was fixed to the skull with two stainless steel screws (1.88 mm outside diameter) anchored. An application of dental cement was added. A plastic collar allowed each animal to be tethered to a Swivel assembly of the CMA 120 awake animal system. Following surgery, rats were kept in individual cages and allowed to recover for a minimum of 3-5 days before the experimentation. The rats were handled and put in plastic bowl for 10 min at least every day to habituate the animals to their new environment for the dialysis. An I.P. administration with saline was also performed every day.
Dialysis probes (CMA12/3 mm, membrane, 20 kD cut-off, Carnegie Medicine, Stockholm, Sweden), were carefully washed before inserting into the guide cannula. The wash was performed with the artificial cerebrospinal fluid (aCSF) medium (NaCl 147 mM, KCl 2.7 mM, CaCl2 1.2 mM, MgCl2 0.85 mM) at room temperature. The dialysis system was then equilibrated at 20° C. at a perfusion rate of 1 μl/min with a Carnegie pump (CMA100). All catheters (FEP tubing, internal volume of 1.2 μl/10 cm, and tubing adaptors) used for microdialysis were treated in the same conditions.
The probes duly prepared were inserted into the guide cannula and the CMA120 Swivel assembly secured to the animal using a plastic collar. Flow through the dialysis probe with aCSF was maintained at a rate of 1 μl/min during the whole experimentation. The first four fractions (corresponding to 2 hours) were discarded to avoid the effects of parenchymal disturbance and to ensure that an approximate steady-state level was reached. Fractions were then collected over a period of 8.5 h during which time the animals remained quiet. The dialysates were automatically collected with an autosampler (microfraction collector CMA 140, Carnegie Medicin) and stored at −80° C. until analysis. […] Perfusion was then maintained for 7 hours with aCSF. The dialysates (30 μl) were collected into 300 μl vials, transferred into dry ice and then kept frozen (−80° C.) until analysis. Frozen samples were shipped to a partner for analysis. At the end of the microdialysis study, a PBS with colored ink was perfused through the probe in order to visualize the dialyzed area.
Catecholamine assay: Concentrations of dopamine, DOPAC, HVA, 5-HIAA, 5-HT, and norepinephrin were determined for each sample by HPLC coupled with electrochemical detection.

Cc1nnc(-c2cc3c(OC[C@@H](O)CN4CCC(c5ccc(Cl)c(Cl)c5)CC4)cccc3o2)o1 [SON-117, (S)-1-(4-(3,4-dichlorophenyl)piperidino)-3-(2-(5-methyl-1,3,4-oxadiazol-2-yl)benzo(b)furan-4-yloxy)-2-propanol hydrochloride]
DOPAC release, MEAN (T-1 h 30-T-1 h (before administration)): 101.39 % of respective basal
DOPAC release, MEAN (T-1 h-T-30 min (before administration)): 103.75 % of respective basal
DOPAC levels, change (not statistically significant) (SON-117 0.1 mg/kg I.P., from 1.5 h to 2.5 h and from 4.5 h to 7 h): tended to induce a slight increase
release of DOPAC, trend (SON-117 0.1 mg/kg, at 2 h and from 4.5 h to 7 h): trend for an increased release
DOPAC dialysate levels vs mean pre-administration value (SON-117 0.3 mg/kg IP): no statistically significant differences
DOPAC dialysate levels vs mean pre-administration value (SON-117 3 mg/kg IP): no statistically significant differences
DOPAC, difference to the citalopram group (two-way ANOVA) (SON-117 at the three doses tested, in function of time): no significant differences
DOPAC (% of respective basal) MEAN (SON-117 group 0.1 mg/kg I.P., T0-T30 min): 81.81 % of respective basal
DOPAC (% of respective basal) MEAN (SON-117 group 0.1 mg/kg I.P., T30-T1 h): 104.52 % of respective basal
DOPAC (% of respective basal) MEAN (SON-117 group 0.1 mg/kg I.P., T1 h 30-T2 h): 144.57 % of respective basal
DOPAC (% of respective basal) MEAN (SON-117 group 0.1 mg/kg I.P., T1 h-T1 h 30): 112.3 % of respective basal
DOPAC (% of respective basal) MEAN (SON-117 group 0.1 mg/kg I.P., T2 h 30-T3 h): 94.20 % of respective basal
DOPAC (% of respective basal) MEAN (SON-117 group 0.1 mg/kg I.P., T2 h-T2 h 30): 102.15 % of respective basal
DOPAC (% of respective basal) MEAN (SON-117 group 0.1 mg/kg I.P., T3 h 30-T4 h): 96.09 % of respective basal
DOPAC (% of respective basal) MEAN (SON-117 group 0.1 mg/kg I.P., T3 h-T3 h 30): 90.94 % of respective basal
DOPAC (% of respective basal) MEAN (SON-117 group 0.1 mg/kg I.P., T4 h 30-T5 h): 120.32 % of respective basal
DOPAC (% of respective basal) MEAN (SON-117 group 0.1 mg/kg I.P., T4 h-T4 h 30): 142.52 % of respective basal
DOPAC (% of respective basal) MEAN (SON-117 group 0.1 mg/kg I.P., T5 h 30-T6 h): 122.76 % of respective basal
DOPAC (% of respective basal) MEAN (SON-117 group 0.1 mg/kg I.P., T5 h-T5 h 30): 129.53 % of respective basal
DOPAC (% of respective basal) MEAN (SON-117 group 0.1 mg/kg I.P., T6 h 30-T7 h): 137.94 % of respective basal
DOPAC (% of respective basal) MEAN (SON-117 group 0.1 mg/kg I.P., T6 h-T6 h 30): 127.81 % of respective basal
DOPAC (% of respective basal) MEAN (SON-117 group 0.1 mg/kg I.P., T-30 min-T0 (before administration)): 90.82 % of respective basal
DOPAC (% of respective basal) MEAN (SON-117 group 0.1 mg/kg I.P., T-1 h 30-T-1 h (before administration)): 109.18 % of respective basal
DOPAC (% of respective basal) MEAN (SON-117 group 0.1 mg/kg I.P., T-1 h-T-30 min (before administration)): 100.52 % of respective basal
DOPAC (% of respective basal) MEAN (SON-117 group 0.3 mg/kg I.P., T0-T30 min): 86.10 % of respective basal
DOPAC (% of respective basal) MEAN (SON-117 group 0.3 mg/kg I.P., T30-T1 h): 84.32 % of respective basal
DOPAC (% of respective basal) MEAN (SON-117 group 0.3 mg/kg I.P., T1 h 30-T2 h): 102.17 % of respective basal
DOPAC (% of respective basal) MEAN (SON-117 group 0.3 mg/kg I.P., T1 h-T1 h 30): 93.91 % of respective basal
DOPAC (% of respective basal) MEAN (SON-117 group 0.3 mg/kg I.P., T2 h 30-T3 h): 83.76 % of respective basal
DOPAC (% of respective basal) MEAN (SON-117 group 0.3 mg/kg I.P., T2 h-T2 h 30): 81.99 % of respective basal
DOPAC (% of respective basal) MEAN (SON-117 group 0.3 mg/kg I.P., T3 h 30-T4 h): 94.46 % of respective basal
DOPAC (% of respective basal) MEAN (SON-117 group 0.3 mg/kg I.P., T3 h-T3 h 30): 83.66 % of respective basal
DOPAC (% of respective basal) MEAN (SON-117 group 0.3 mg/kg I.P., T4 h 30-T5 h): 107.30 % of respective basal
DOPAC (% of respective basal) MEAN (SON-117 group 0.3 mg/kg I.P., T4 h-T4 h 30): 94.25 % of respective basal
DOPAC (% of respective basal) MEAN (SON-117 group 0.3 mg/kg I.P., T5 h 30-T6 h): 88.68 % of respective basal
DOPAC (% of respective basal) MEAN (SON-117 group 0.3 mg/kg I.P., T5 h-T5 h 30): 79.90 % of respective basal
DOPAC (% of respective basal) MEAN (SON-117 group 0.3 mg/kg I.P., T6 h 30-T7 h): 96.87 % of respective basal
DOPAC (% of respective basal) MEAN (SON-117 group 0.3 mg/kg I.P., T6 h-T6 h 30): 97.32 % of respective basal
DOPAC (% of respective basal) MEAN (SON-117 group 0.3 mg/kg I.P., T-30 min-T0 (before administration)): 92.84 % of respective basal
DOPAC (% of respective basal) MEAN (SON-117 group 0.3 mg/kg I.P., T-1 h 30-T-1 h (before administration)): 104.24 % of respective basal
DOPAC (% of respective basal) MEAN (SON-117 group 0.3 mg/kg I.P., T-1 h-T-30 min (before administration)): 102.91 % of respective basal
